Results: PubChem BioAssay (NCI)
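Growth conditions: 96-well plates. Treatment: test compound, 48 hours, 5 concentrations. Analysis: linear interpolation between bracketing concentrations; unreached endpoints set to highest concentration. GI50 marks 50% less growth. Definition used: TGI = concentration required for complete inhibition of growth.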

Legend:
Assay in all cases: NCI tumour cell line growth inhibition, 48 h
[1] = test system: A498 renal
[2] = test system: A549 NSCLC
[3] = test system: BT-549 breast
[4] = test system: CAKI-1 renal
[5] = test system: CCRF-CEM leukemia
[6] = test system: COLO 205 colon
[7] = test system: DU-145 prostate
[8] = test system: EKVX NSCLC
[9] = test system: HCC-2998 colon
[10] = test system: HCT-116 colon
[11] = test system: HCT-15 colon
[12] = test system: HOP-62 NSCLC
[13] = test system: HOP-92 NSCLC
[14] = test system: HS 578T breast
[15] = test system: HT29 colon
[16] = test system: IGROV1 ovarian
[17] = test system: KM12 colon
[18] = test system: M14 melanoma
[19] = test system: MALME-3M melanoma
[20] = test system: MDA-MB-231 breast
[21] = test system: MDA-MB-435
[22] = test system: MDA-N
[23] = test system: MOLT-4 leukemia
[24] = test system: NCI-H23 lung
[25] = test system: NCI-H460 lung
[26] = test system: NCI-H522 lung
[27] = test system: OVCAR-3 ovarian
[28] = test system: OVCAR-4 ovarian
[29] = test system: OVCAR-5 ovarian
[30] = test system: PC-3 prostate
[31] = test system: RPMI-8226 leukemia
[32] = test system: SF-268 CNS
[33] = test system: SF-295 CNS
[34] = test system: SK-MEL-2 melanoma
[35] = test system: SK-MEL-28 melanoma
[36] = test system: SK-MEL-5 melanoma
[37] = test system: SK-OV-3 ovarian
[38] = test system: SN12C renal
[39] = test system: SNB-19 CNS
[40] = test system: SNB-75 CNS
[41] = test system: SR leukemia
[42] = test system: SW-620 colon
[43] = test system: TK-10 renal
[44] = test system: U251 CNS
[45] = test system: UACC-257 melanoma
[46] = test system: UACC-62 melanoma
[47] = test system: UO-31 renal
[48] = test system: 786-0 renal
[49] = test system: ACHN renal
[50] = test system: HL-60(TB) leukemia
[51] = test system: K-562 leukemia
[52] = test system: LOX IMVI melanoma
[53] = test system: MCF7 breast
[54] = test system: NCI-H226 lung
[55] = test system: NCI/ADR-RES ovarian
[56] = test system: OVCAR-8 ovarian
[57] = test system: RXF 393 renal
[58] = test system: SF-539 CNS
[59] = test system: T-47D breast

## CC(=O)OC1COC(N2c3ccccc3[C@@H]3CCc4c([nH]c5ccccc45)[C@@H]32)C(OC(C)=O)C1OC(C)=O (mixture of isomers)
[1]
  TGI: 62 µM
[2]
  TGI: > 100 µM
[3]
  TGI: > 100 µM
[4]
  TGI: > 100 µM
[5]
  TGI: > 100 µM
[6]
  TGI: > 100 µM
[7]
  TGI: > 100 µM
[8]
  TGI: > 100 µM
[9]
  TGI: > 100 µM
[10]
  TGI: > 100 µM
[11]
  TGI: > 100 µM
[12]
  TGI: > 100 µM
[13]
  TGI: > 100 µM
[14]
  TGI: > 100 µM
[15]
  TGI: > 100 µM
[16]
  TGI: 54 µM
[17]
  TGI: > 100 µM
[18]
  TGI: > 100 µM
[19]
  TGI: > 100 µM
[20]
  TGI: > 100 µM
[21]
  TGI: > 100 µM
[22]
  TGI: > 100 µM
[23]
  TGI: > 100 µM
[24]
  TGI: > 100 µM
[25]
  TGI: > 100 µM
[26]
  TGI: > 100 µM
[27]
  TGI: > 100 µM
[28]
  TGI: > 100 µM
[29]
  TGI: > 100 µM
[30]
  TGI: > 100 µM
[31]
  TGI: > 100 µM
[32]
  TGI: > 100 µM
[33]
  TGI: > 100 µM
[34]
  TGI: > 100 µM
[35]
  TGI: > 100 µM
[36]
  TGI: > 100 µM
[37]
  TGI: > 100 µM
[38]
  TGI: > 100 µM
[39]
  TGI: > 100 µM
[40]
  TGI: > 100 µM
[41]
  TGI: > 100 µM
[42]
  TGI: > 100 µM
[43]
  TGI: > 100 µM
[44]
  TGI: > 100 µM
[45]
  TGI: > 100 µM
[46]
  TGI: > 100 µM
[47]
  TGI: > 100 µM

## CC(=O)N=S(NC(=O)c1ccc(C)cc1)C(Cl)(Cl)Cl (configuration not stated)
[48]
  TGI: 33.1 µM
[2]
  TGI: > 100 µM
[49]
  TGI: > 100 µM
[5]
  TGI: 51.5 µM
[6]
  TGI: 45.3 µM
[7]
  TGI: > 100 µM
[8]
  TGI: > 100 µM
[9]
  TGI: 30.5 µM
[10]
  TGI: > 100 µM
[11]
  TGI: > 100 µM
[50]
  TGI: 26.9 µM
[12]
  TGI: > 100 µM
[13]
  TGI: > 100 µM
[14]
  TGI: > 100 µM
[15]
  TGI: 60.6 µM
[16]
  TGI: 93.4 µM
[51]
  TGI: > 100 µM
[17]
  TGI: > 100 µM
[52]
  TGI: 80.1 µM
[18]
  TGI: 31.8 µM
[19]
  TGI: 96 µM
[53]
  TGI: > 100 µM
[20]
  TGI: 68 µM
[21]
  TGI: 40.7 µM
[22]
  TGI: > 100 µM
[23]
  TGI: 83.8 µM
[54]
  TGI: > 100 µM
[24]
  TGI: 68.2 µM
[25]
  TGI: > 100 µM
[55]
  TGI: 49.1 µM
[27]
  TGI: 52 µM
[28]
  TGI: 77.7 µM
[29]
  TGI: > 100 µM
[56]
  TGI: 33.1 µM
[30]
  TGI: > 100 µM
[31]
  TGI: > 100 µM
[57]
  TGI: > 100 µM
[32]
  TGI: > 100 µM
[33]
  TGI: > 100 µM
[58]
  TGI: > 100 µM
[35]
  TGI: > 100 µM
[36]
  TGI: 77.9 µM
[37]
  TGI: > 100 µM
[38]
  TGI: > 100 µM
[39]
  TGI: > 100 µM
[40]
  TGI: > 100 µM
[42]
  TGI: 36.3 µM
[59]
  TGI: > 100 µM
[43]
  TGI: > 100 µM
[44]
  TGI: 59.3 µM
[45]
  TGI: > 100 µM
[46]
  TGI: > 100 µM
[47]
  TGI: 56 µM

## COc1ccc(-c2oc3cc(OC)ccc3c(=O)c2O)cc1
[48]
  TGI: > 100 µM
[1]
  TGI: > 100 µM
[3]
  TGI: 4.23 µM
[4]
  TGI: 8.33 µM
[6]
  TGI: > 100 µM
[8]
  TGI: > 100 µM
[10]
  TGI: > 100 µM
[11]
  TGI: > 100 µM
[13]
  TGI: > 31.6 µM
[14]
  TGI: 5.53 µM
[15]
  TGI: > 100 µM
[16]
  TGI: > 31.6 µM
[52]
  TGI: > 100 µM
[18]
  TGI: > 31.6 µM
[19]
  TGI: > 31.6 µM
[53]
  TGI: > 31.6 µM
[20]
  TGI: > 100 µM
[21]
  TGI: > 31.6 µM
[22]
  TGI: > 100 µM
[25]
  TGI: > 100 µM
[28]
  TGI: > 31.6 µM
[30]
  TGI: > 100 µM
[31]
  TGI: > 31.6 µM
[57]
  TGI: 42.6 µM
[33]
  TGI: > 100 µM
[35]
  TGI: > 31.6 µM
[36]
  TGI: > 100 µM
[39]
  TGI: > 100 µM
[43]
  TGI: > 100 µM
[44]
  TGI: > 100 µM
[45]
  TGI: > 100 µM

## COc1ccc(-c2nn(-c3cccc(Cl)c3)cc2/C=C2\C(=N)N(c3ccccc3)N=C2N)cc1
[48]
  GI50: 1.35 µM
  TGI: 29.9 µM
[1]
  GI50: 11.2 µM
  TGI: > 78.8 µM
[2]
  GI50: 0.54 µM
  TGI: > 82.2 µM
[49]
  GI50: 0.95 µM
  TGI: 42.6 µM
[3]
  GI50: 5.75 µM
  TGI: 39.2 µM
[4]
  GI50: 0.229 µM
  TGI: 0.844 µM
[5]
  GI50: 0.655 µM
  TGI: > 58.7 µM
[6]
  GI50: 1.83 µM
  TGI: 3.92 µM
[7]
  GI50: 1.37 µM
  TGI: > 47.9 µM
[8]
  GI50: 1.5 µM
  TGI: 60.5 µM
[9]
  GI50: 0.627 µM
  TGI: 4.42 µM
[10]
  GI50: 1.59 µM
  TGI: 17.2 µM
[11]
  GI50: 0.489 µM
  TGI: 26 µM
[50]
  GI50: 0.414 µM
  TGI: 9.24 µM
[12]
  GI50: 16 µM
  TGI: > 80.6 µM
[13]
  GI50: 22.4 µM
  TGI: > 81.4 µM
[14]
  GI50: 19.6 µM
  TGI: > 100 µM
[15]
  GI50: 2.57 µM
  TGI: 24.5 µM
[16]
  GI50: 2.1 µM
  TGI: > 84.8 µM
[51]
  GI50: 0.352 µM
  TGI: 32.6 µM
[17]
  GI50: 0.2 µM
  TGI: 1.79 µM
[52]
  GI50: 0.337 µM
  TGI: 4.58 µM
[18]
  GI50: 0.331 µM
  TGI: 5.42 µM
[19]
  GI50: 4.9 µM
  TGI: 46.1 µM
[53]
  GI50: 2.2 µM
  TGI: 33.5 µM
[20]
  GI50: 1.25 µM
  TGI: 28.7 µM
[21]
  GI50: 0.495 µM
  TGI: 21.2 µM
[23]
  GI50: 0.511 µM
  TGI: 22.3 µM
[54]
  GI50: 6.58 µM
  TGI: > 66.8 µM
[24]
  GI50: 4.62 µM
  TGI: 43.5 µM
[25]
  GI50: 0.445 µM
  TGI: 7.4 µM
[26]
  GI50: 0.916 µM
  TGI: 23 µM
[55]
  GI50: 1.32 µM
  TGI: > 48.9 µM
[27]
  GI50: 3.09 µM
  TGI: 20.4 µM
[28]
  GI50: 2.13 µM
  TGI: > 89.1 µM
[29]
  GI50: 2.08 µM
  TGI: > 65.9 µM
[56]
  GI50: 1.12 µM
  TGI: > 100 µM
[30]
  GI50: 0.601 µM
  TGI: > 59 µM
[31]
  GI50: 0.993 µM
  TGI: 46.2 µM
[57]
  GI50: 17.5 µM
  TGI: > 80.6 µM
[32]
  GI50: 4.52 µM
  TGI: > 100 µM
[33]
  GI50: 0.271 µM
  TGI: 2.83 µM
[58]
  GI50: 0.617 µM
  TGI: 3.52 µM
[34]
  GI50: 1.66 µM
  TGI: 12.6 µM
[35]
  GI50: 6.59 µM
  TGI: > 100 µM
[36]
  GI50: 2.16 µM
  TGI: 7.73 µM
[37]
  GI50: 34.7 µM
  TGI: > 100 µM
[38]
  GI50: 3.33 µM
  TGI: > 100 µM
[39]
  GI50: 8.58 µM
  TGI: > 100 µM
[40]
  GI50: 18.8 µM
  TGI: 98.6 µM
[41]
  GI50: 1.04 µM
  TGI: 15.1 µM
[42]
  GI50: 0.399 µM
  TGI: 20.7 µM
[59]
  GI50: 1.81 µM
  TGI: > 100 µM
[43]
  GI50: 7.77 µM
  TGI: > 95.8 µM
[44]
  GI50: 3 µM
  TGI: 35.2 µM
[45]
  GI50: 2.14 µM
  TGI: 33.6 µM
[46]
  GI50: 0.331 µM
  TGI: 3.75 µM
[47]
  GI50: 0.587 µM
  TGI: 25.8 µM
